Consider 20 molecules from ChEMBL document CHEMBL4038286, “Synthesis of camphecene derivatives using click chemistry methodology and study of their antiviral activity” (Bioorg Med Chem Lett, 2017).

For the assay, the system named is Influenza A virus. The experiment in a line: Antiviral activity against rimantadine-resistant Influenza A virus (A/Puerto Rico/8/34(H1N1)) infected in MDCK cells. The assay is classed as functional, A/Puerto Rico/8/1934(H1N1). The note with it: read-out: ED50 (the source's name).
Regarding `CCOP(=O)(CCCCn1cc(COCC/N=C2\C[C@H]3CC[C@]2(C)C3(C)C)nn1)OCC`, the EC50 is 299 µM.
As to `CNCc1cn(CC/N=C2\C[C@H]3CC[C@]2(C)C3(C)C)nn1`, the EC50 was > 100 µM.
In the case of `CC1(C)[C@@H]2CC[C@@]1(C)/C(=N/CCOCc1cn(CCO)nn1)C2`, the EC50 was determined as 50 µM.
Regarding `CC(N)[C@@H]1C[C@H]2CC[C@]1(C)C2` (stereo not given in full), the EC50 was determined as 181 µM.
Consider `CC(C)(O)Cc1cn(CC/N=C2\C[C@H]3CC[C@]2(C)C3(C)C)nn1`, for which the EC50 was found to be 32 µM.
Consider `CC1(C)[C@@H]2CC[C@@]1(C)/C(=N/CCOCc1cn(-c3ccccc3)nn1)C2`, for which the EC50 is 63 µM.
As for `CCOC(=O)C(C)(Cc1cn(CC/N=C2\C[C@H]3CC[C@]2(C)C3(C)C)nn1)P(=O)(OCC)OCC` (stereo not given in full), the figure is 314 µM; as for `C#CCOCC/N=C1\C[C@H]2CC[C@]1(C)C2(C)C`, > 429 µM.
With `CC1(C)[C@@H]2CC[C@@]1(C)/C(=N/CCn1cc([Si](C)(C)C)nn1)C2`, the EC50 was > 31 µM.
As for `CC1(C)[C@@H]2CC[C@@]1(C)/C(=N\CCOCc1cn(CC/N=C3\C[C@H]4CC[C@]3(C)C4(C)C)nn1)C2`, the EC50 amounted to 98 µM.
For the molecule `CCCCc1cn(CC/N=C2\C[C@H]3CC[C@]2(C)C3(C)C)nn1`, the EC50 came out at 56 µM.
Regarding `CC1(C)[C@@H]2CC[C@@]1(C)/C(=N/CCn1cc(CCO)nn1)C2`, the EC50 was 55 µM.
For `CC(C)(C)OC(=O)Cn1cc(COCC/N=C2\C[C@H]3CC[C@]2(C)C3(C)C)nn1`, the EC50 worked out at 24 µM.
`COCCNCCc1cn(CC/N=C2\C[C@H]3CC[C@]2(C)C3(C)C)nn1`: the EC50 came out at 25 µM.
For `CC1(C)[C@@H]2CC[C@@]1(C)/C(=N/CCn1cc(CCN3CCOCC3)nn1)C2`, the EC50 was found to be 45 µM.
Regarding `CCOP(=O)(OCC)C(Cc1cn(CC/N=C2\C[C@H]3CC[C@]2(C)C3(C)C)nn1)P(=O)(OCC)OCC`, the EC50 was > 58.4 µM.
With `CC1(C)[C@@H]2CC[C@@]1(C)/C(=N/CCN=[N+]=[N-])C2`, the EC50 was found to be 455 µM.
Under `CC1(C)[C@@H]2CC[C@@]1(C)/C(=N/CCn1cc(CO)nn1)C2` stands 616 µM; under `NC12CC3CC(CC(C3)C1)C2` [AMANTADINE], 60 µM; under `CC(N)C12CC3CC(CC(C3)C1)C2` (stereo not given) [RIMANTADINE], 72 µM.
